In ChEMBL document CHEMBL5126592, “Design, synthesis and activity against drug-resistant bacteria evaluation of C-20, C-23 modified 5-O-mycaminosyltylonolide derivatives” (Eur J Med Chem, 2022):
In brackets after ≈: the same amount, converted by molar mass. Activity calls are given as the source filed them. The rule behind the calls is not given here.

Assays:
Staphylococcus aureus [1] = experiment: Antibacterial activity against Staphylococcus aureus incubated for 16 to 20 hrs by broth microdilution method; format: functional; details: time 16-20 hrs
Escherichia coli [2] = experiment: Antibacterial activity against Escherichia coli ATCC 25922 incubated for 16 to 20 hrs using 10^7 CFU/ml bacterial inoculum by broth microdilution method; format: functional; details: time 16-20 hrs
Escherichia coli [3] = experiment: Antibacterial activity against Escherichia coli ATCC 25922 incubated for 16 to 20 hrs using 10^6 CFU/ml bacterial inoculum by broth microdilution method; format: functional; details: time 16-20 hrs
Escherichia coli [4] = experiment: Antibacterial activity against Escherichia coli ATCC 25922 incubated for 16 to 20 hrs in absence of foetal bovine serum by broth microdilution method; format: functional; details: time 16-20 hrs
Staphylococcus aureus [5] = experiment: Antibacterial activity against Staphylococcus aureus ATCC 29213 incubated for 16 to 20 hrs using 10^6 CFU/ml bacterial inoculum by broth microdilution method; format: functional; details: time 16-20 hrs
Staphylococcus aureus [6] = experiment: Antibacterial activity against Staphylococcus aureus ATCC 29213 incubated for 16 to 20 hrs by broth microdilution method; format: functional; details: time 16-20 hrs
Escherichia coli [7] = experiment: Antibacterial activity against Escherichia coli ATCC 25922 incubated for 16 to 20 hrs using 10^3 CFU/ml bacterial inoculum by broth microdilution method; format: functional; details: time 16-20 hrs
Staphylococcus aureus [8] = experiment: Antibacterial activity against Staphylococcus aureus ATCC 29213 incubated for 16 to 20 hrs using 10^5 CFU/ml bacterial inoculum by broth microdilution method; format: functional; details: time 16-20 hrs
[9] = system: Streptococcus dysgalactiae; experiment: Antibacterial activity against Streptococcus dysgalactiae incubated for 16 to 20 hrs by broth microdilution method; format: functional; details: time 16-20 hrs
Staphylococcus aureus [10] = experiment: Antibacterial activity against Staphylococcus aureus ATCC 29213 incubated for 16 to 20 hrs using 10^7 CFU/ml bacterial inoculum by broth microdilution method; format: functional; details: time 16-20 hrs
Staphylococcus aureus [11] = experiment: Antibacterial activity against Staphylococcus aureus ATCC 25923 incubated for 16 to 20 hrs by broth microdilution method; format: functional; details: time 16-20 hrs
Staphylococcus aureus [12] = experiment: Antibacterial activity against Staphylococcus aureus ATCC 29213 at pH 8.6 incubated for 16 to 20 hrs in presence of 10% foetal bovine serum by broth microdilution method; format: functional; details: time 16-20 hrs
Escherichia coli [13] = experiment: Antibacterial activity against Escherichia coli ATCC 25922 incubated for 16 to 20 hrs in presence of 25% foetal bovine serum by broth microdilution method; format: functional; details: time 16-20 hrs
Escherichia coli [14] = experiment: Antibacterial activity against Escherichia coli incubated for 16 to 20 hrs by broth microdilution method; format: functional; details: time 16-20 hrs
Staphylococcus aureus [15] = experiment: Antibacterial activity against Staphylococcus aureus ATCC 25923 infected in kunming mouse assessed as reduction in viable pathogens at 32.5 mg/kg, iv measured after 1 hr; format: functional, organism-based
Staphylococcus aureus [16] = experiment: Ratio of MBC to MIC for Staphylococcus aureus ATCC 29213; format: functional
Cronobacter sakazakii = experiment: Antibacterial activity against Cronobacter sakazakii ATCC 29544 incubated for 16 to 20 hrs by broth microdilution method; format: functional; details: time 16-20 hrs
Staphylococcus aureus [17] = experiment: Antibacterial activity against Staphylococcus aureus ATCC 29213 incubated for 16 to 20 hrs using 10^3 CFU/ml bacterial inoculum by broth microdilution method; format: functional; details: time 16-20 hrs
Escherichia coli [18] = experiment: Antibacterial activity against Escherichia coli ATCC 25922 incubated for 16 to 20 hrs by broth microdilution method; format: functional; details: time 16-20 hrs
Staphylococcus aureus [19] = experiment: Bactericidal activity against Staphylococcus aureus ATCC 29213 incubated for 20 to 24 hrs by CLSI based analysis; format: functional; details: time 20-24 hrs
Escherichia coli [20] = experiment: Inhibition of protein synthesis in Escherichia coli ATCC 25922 assessed as reduction in protein content at […] measured upto 12 hrs by microporous enzyme labeling method relative to control; format: functional
Escherichia coli [21] = experiment: Antibacterial activity against Escherichia coli ATCC 25922 incubated for 16 to 20 hrs in presence of 50% foetal bovine serum by broth microdilution method; format: functional; details: time 16-20 hrs
Staphylococcus aureus [22] = experiment: Antibacterial activity against Staphylococcus aureus ATCC 29213 at pH 8.6 incubated for 16 to 20 hrs in presence of 5% foetal bovine serum by broth microdilution method; format: functional; details: time 16-20 hrs
Klebsiella pneumoniae = experiment: Antibacterial activity against Klebsiella pneumoniae ATCC 13883 incubated for 16 to 20 hrs by broth microdilution method; format: functional; details: time 16-20 hrs
Staphylococcus aureus [23] = experiment: Antibacterial activity against Staphylococcus aureus ATCC 29213 incubated for 16 to 20 hrs using 10^4 CFU/ml bacterial inoculum by broth microdilution method; format: functional; details: time 16-20 hrs
Escherichia coli [24] = experiment: Antibacterial activity against Escherichia coli ATCC 25922 incubated for 16 to 20 hrs in presence of 10% foetal bovine serum by broth microdilution method; format: functional; details: time 16-20 hrs
[25] = system: Staphylococcus chromogenes; experiment: Antibacterial activity against Staphylococcus chromogenes incubated for 16 to 20 hrs by broth microdilution method; format: functional; details: time 16-20 hrs
Pseudomonas aeruginosa = experiment: Antibacterial activity against Pseudomonas aeruginosa LTP-3 incubated for 16 to 20 hrs by broth microdilution method; format: functional; details: time 16-20 hrs
Escherichia coli [26] = experiment: Bactericidal activity against Escherichia coli ATCC 25922 incubated for 20 to 24 hrs by CLSI based analysis; format: functional; details: time 20-24 hrs
Enterococcus faecium = experiment: Antibacterial activity against Enterococcus faecium incubated for 16 to 20 hrs by broth microdilution method; format: functional; details: time 16-20 hrs
Escherichia coli [27] = experiment: Ratio of MBC to MIC for Escherichia coli ATCC 25922; format: functional
Escherichia coli [28] = experiment: Antibacterial activity against Escherichia coli ATCC 25922 incubated for 16 to 20 hrs using 10^5 CFU/ml bacterial inoculum by broth microdilution method; format: functional; details: time 16-20 hrs
Staphylococcus aureus [29] = experiment: Antibacterial activity against Staphylococcus aureus ATCC 29213 at pH 8.6 incubated for 16 to 20 hrs in absence of foetal bovine serum by broth microdilution method; format: functional; details: time 16-20 hrs
Escherichia coli [30] = experiment: Antibacterial activity against Escherichia coli ATCC 25922 incubated for 16 to 20 hrs using 10^4 CFU/ml bacterial inoculum by broth microdilution method; format: functional; details: time 16-20 hrs
Escherichia coli [31] = experiment: Antibacterial activity against Escherichia coli ATCC 25922 incubated for 16 to 20 hrs in presence of 5% foetal bovine serum by broth microdilution method; format: functional; details: time 16-20 hrs
Staphylococcus aureus [32] = experiment: Antibacterial activity against Staphylococcus aureus ATCC 29213 at pH 8.6 incubated for 16 to 20 hrs in presence of 25% foetal bovine serum by broth microdilution method; format: functional; details: time 16-20 hrs
Staphylococcus aureus [33] = experiment: Antibacterial activity against Staphylococcus aureus ATCC 29213 at pH 8.6 incubated for 16 to 20 hrs in presence of 50% foetal bovine serum by broth microdilution method; format: functional; details: time 16-20 hrs

With `CC[C@H]1OC(=O)C[C@@H](O)[C@H](C)[C@@H](O[C@@H]2O[C@H](C)[C@@H](O)[C@H](N(C)C)[C@H]2O)[C@@H](CCN2CCCCC2)C[C@@H](C)C(=O)/C=C/C(C)=C/[C@@H]1CN1CCCCC1` [TILDIPIROSIN] the MIC (Staphylococcus aureus [1]) was 32 µg/mL (≈ 43.6 µM), the MIC (Escherichia coli [2]) was 2 µg/mL (≈ 2.72 µM) and the MIC (Escherichia coli [3]) was 2 µg/mL (≈ 2.72 µM). The MIC (Escherichia coli [4]) was 2 µg/mL (≈ 2.72 µM), the MIC (Staphylococcus aureus [5]) was 4 µg/mL (≈ 5.45 µM) and the MIC (Staphylococcus aureus [6]) was 16 µg/mL (≈ 21.8 µM). The MIC (Escherichia coli [7]) was 0.5 µg/mL (≈ 0.681 µM), the MIC (Staphylococcus aureus [8]) was 2 µg/mL (≈ 2.72 µM) and the MIC [9] was 32 µg/mL (≈ 43.6 µM). The MIC (Staphylococcus aureus [10]) was 4 µg/mL (≈ 5.45 µM), the MIC (Staphylococcus aureus [11]) was 16 µg/mL (≈ 21.8 µM) and the MIC (Staphylococcus aureus [12]) was 8 µg/mL. The MIC (Escherichia coli [13]) was 4 µg/mL, the MIC (Escherichia coli [14]) was 16 µg/mL (≈ 21.8 µM) and the Activity (Staphylococcus aureus [15]) was “Active”. It also gave a Ratio (Staphylococcus aureus [16]) of over 2, an MIC (Cronobacter sakazakii) of 16 µg/mL (≈ 21.8 µM) and an MIC (Staphylococcus aureus [17]) of 0.5 µg/mL (≈ 0.681 µM). It also gave an MIC (Escherichia coli [18]) of 1 µg/mL (≈ 1.36 µM), an MBC (Staphylococcus aureus [19]) of over 32 µg/mL and an inhibition (Escherichia coli [20]) of 26.5%. The MIC (Escherichia coli [21]) was 4 µg/mL, the MIC (Staphylococcus aureus [22]) was 4 µg/mL and the MIC (Klebsiella pneumoniae) was 8 µg/mL (≈ 10.9 µM). For the same compound, the MIC (Staphylococcus aureus [23]) was 1 µg/mL (≈ 1.36 µM), the MIC (Escherichia coli [24]) was 2 µg/mL and the MIC [25] was 16 µg/mL (≈ 21.8 µM). For the same compound, the MIC (Pseudomonas aeruginosa) was 4 µg/mL (≈ 5.45 µM), the MBC (Escherichia coli [26]) was 4 µg/mL (≈ 5.45 µM) and the MIC (Enterococcus faecium) was 32 µg/mL (≈ 43.6 µM). For the same compound, the Ratio (Escherichia coli [27]) was 4, the MIC (Escherichia coli [28]) was 1 µg/mL (≈ 1.36 µM) and the MIC (Staphylococcus aureus [29]) was 4 µg/mL (≈ 5.45 µM). It also gave an MIC (Escherichia coli [30]) of 1 µg/mL (≈ 1.36 µM), an MIC (Escherichia coli [31]) of 2 µg/mL and an MIC (Staphylococcus aureus [32]) of 16 µg/mL. The MIC (Staphylococcus aureus [33]) was 16 µg/mL.
